Data from patent US20140303164A1, “THERAPEUTIC COMPOUNDS” (Gilead Sciences, Inc., priority 2013, published 2014).

Tests used:
[1] = system: HIV-IIIb; experiment: Test A: Antiviral Assay in MT4 Cells; type: cell-based, HIV-1; details: Human immunodeficiency virus 1, IIIB, MT4, 120 h; for inhibition at 0.2 µM: read-out: % inhibition at 0.2 μM; for inhibition at 2 µM: read-out: % inhibition at 2 μM
Method: Test A: Antiviral Assay in MT4 Cells
MT-4 cells were next mixed with HIV-IIIb at an m.o.i of 0.003 for 1 hour, after which time 35 μL of virus/cell mixture (2000 cells) was immediately added to each well containing 40 μL of diluted compound. The plates were then incubated at 37° C. for 5 days. […] Cell lysis was carried out by incubating at room temperature for 10 min and then chemiluminescence was read.

[2] = Test B: Cytotoxicity Assay; type: cell-based; details: human, uninfected MT-4 cells, same protocol as Test A
In short: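 Uninfected MT-4 cells (2000 per well) incubated with diluted compound at 37° C. for 5 days, following the antiviral protocol without HIV-IIIb.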

CCn1nc(N)c2cccc(-c3ccc(C#CC(C)(C)O)nc3[C@H](Cc3cc(F)cc(F)c3)NC(=O)Cn3nc(C(F)(F)F)c4c3C(F)(F)[C@@H]3C[C@H]43)c21 [Compound 45G, N—((S)-1-(3-(3-amino-1-ethyl-1H-indazol-7-yl)-6-(3-hydroxy-3-methylbut-1-yn-1-yl)pyridin-2-yl)-2-(3,5-difluorophenyl)ethyl)-2-((3b-S,4aR)-5,5-difluoro-3-(trifluoromethyl)-3b,4,4a,5-tetrahydro-1H-cyclopropa[3,4]cyclopenta[1,2-c]pyrazol-1-yl)acetamide]
inhibition at 0.2 µM [1]: 92% | inhibition at 2 µM [1]: 92% | CC50 at 5 days [2]: 10.4 µM

CC(C)(O)C#Cc1ccc(-c2ccc3[nH]nc(N)c3c2)c([C@H](Cc2cc(F)cc(F)c2)NC(=O)Cn2nc(C(F)(F)F)c3c2C(F)(F)[C@@H]2C[C@H]32)n1 [Compound 46, N—((S)-1-(3-(3-amino-1H-indazol-5-yl)-6-(3-hydroxy-3-methylbut-1-yn-1-yl)pyridin-2-yl)-2-(3,5-difluorophenyl)ethyl)-2-((3b-S,4aR)-5,5-difluoro-3-(trifluoromethyl)-3b,4,4a,5-tetrahydro-1H-cyclopropa[3,4]cyclopenta[1,2-c]pyrazol-1-yl)acetamide]
inhibition at 0.2 µM [1]: 87% | inhibition at 2 µM [1]: 89% | CC50 at 5 days [2]: 10.5 µM

Cn1cnc(S(=O)(=O)Nc2nn(C)c3c(-c4ccc(C#CC(C)(C)O)nc4[C@H](Cc4cc(F)cc(F)c4)NC(=O)Cn4nc(C(F)(F)F)c5c4C(F)(F)[C@@H]4C[C@H]54)cccc23)c1 [Compound 47, 2-((3bS,4aR)-5,5-difluoro-3-(trifluoromethyl)-3b,4,4a,5-tetrahydro-1H-cyclopropa[3,4]cyclopenta[1,2-c]pyrazol-1-yl)-N—((S)-2-(3,5-difluorophenyl)-1-(6-(3-hydroxy-3-methylbut-1-yn-1-yl)-3-(1-methyl-3-(1-methyl-1H-imidazole-4-sulfonamido)-1H-indazol-7-yl)pyridin-2-yl)ethyl)acetamide]
inhibition at 0.2 µM [1]: 100% | inhibition at 2 µM [1]: 100% | CC50 at 5 days [2]: 21.4 µM

Cn1cc(S(=O)(=O)Nc2nn(C)c3c(-c4ccc(C#CC(C)(C)O)nc4[C@H](Cc4cc(F)cc(F)c4)NC(=O)Cn4nc(C(F)(F)F)c5c4C(F)(F)[C@@H]4C[C@H]54)cccc23)cn1 [Compound 48, 2-((3bS,4aR)-5,5-difluoro-3-(trifluoromethyl)-3b,4,4a,5-tetrahydro-1H-cyclopropa[3,4]cyclopenta[1,2-c]pyrazol-1-yl)-N—((S)-2-(3,5-difluorophenyl)-1-(6-(3-hydroxy-3-methylbut-1-yn-1-yl)-3-(1-methyl-3-(1-methyl-1H-pyrazole-4-sulfonamido)-1H-indazol-7-yl)pyridin-2-yl)ethyl)acetamide]
inhibition at 0.2 µM [1]: 88% | inhibition at 2 µM [1]: 88% | CC50 at 5 days [2]: 24 µM

Cn1nc(NS(=O)(=O)c2cn[nH]c2)c2cccc(-c3ccc(C#CC(C)(C)O)nc3[C@H](Cc3cc(F)cc(F)c3)NC(=O)Cn3nc(C(F)(F)F)c4c3C(F)(F)[C@@H]3C[C@H]43)c21 [Compound 49, 2-((3bS,4aR)-5,5-difluoro-3-(trifluoromethyl)-3b,4,4a,5-tetrahydro-1H-cyclopropa[3,4]cyclopenta[1,2-c]pyrazol-1-yl)-N—((S)-2-(3,5-difluorophenyl)-1-(6-(3-hydroxy-3-methylbut-1-yn-1-yl)-3-(1-methyl-3-(1H-pyrazole-4-sulfonamido)-1H-indazol-7-yl)pyridin-2-yl)ethyl)acetamide]
inhibition at 0.2 µM [1]: 87% | inhibition at 2 µM [1]: 87% | CC50 at 5 days [2]: 24 µM

Cn1nc(NC(=O)NC2CC2)c2cccc(-c3ccc(C#CC(C)(C)O)nc3[C@H](Cc3cc(F)cc(F)c3)NC(=O)Cn3nc(C(F)(F)F)c4c3C(F)(F)[C@@H]3C[C@H]43)c21 [Compound 50, N—((S)-1-(3-(3-(3-cyclopropylureido)-1-methyl-1H-indazol-7-yl)-6-(3-hydroxy-3-methylbut-1-yn-1-yl)pyridin-2-yl)-2-(3,5-difluorophenyl)ethyl)-2-((3b-S,4aR)-5,5-difluoro-3-(trifluoromethyl)-3b,4,4a,5-tetrahydro-1H-cyclopropa[3,4]cyclopenta[1,2-c]pyrazol-1-yl)acetamide]
inhibition at 0.2 µM [1]: 95% | inhibition at 2 µM [1]: 96% | CC50 at 5 days [2]: 11.7 µM

CN1CCN(C(=O)Nc2nn(C)c3c(-c4ccc(C#CC(C)(C)O)nc4[C@H](Cc4cc(F)cc(F)c4)NC(=O)Cn4nc(C(F)(F)F)c5c4C(F)(F)[C@@H]4C[C@H]54)cccc23)CC1 [Compound 51, N-(7-(2-((S)-1-(2-((3bS,4aR)-5,5-difluoro-3-(trifluoromethyl)-3b,4,4a,5-tetrahydro-1H-cyclopropa[3,4]cyclopenta[1,2-c]pyrazol-1-yl)acetamido)-2-(3,5-difluorophenyl)ethyl)-6-(3-hydroxy-3-methylbut-1-yn-1-yl)pyridin-3-yl)-1-methyl-1H-indazol-3-yl)-4-methylpiperazine-1-carboxamide]
inhibition at 0.2 µM [1]: 95% | inhibition at 2 µM [1]: 95% | CC50 at 5 days [2]: 11.1 µM

Cn1nc(NC(=O)N2CCOCC2)c2cccc(-c3ccc(C#CC(C)(C)O)nc3[C@H](Cc3cc(F)cc(F)c3)NC(=O)Cn3nc(C(F)(F)F)c4c3C(F)(F)[C@@H]3C[C@H]43)c21 [Compound 52, N-(7-(2-((S)-1-(2-((3bS,4aR)-5,5-difluoro-3-(trifluoromethyl)-3b,4,4a,5-tetrahydro-1H-cyclopropa[3,4]cyclopenta[1,2-c]pyrazol-1-yl)acetamido)-2-(3,5-difluorophenyl)ethyl)-6-(3-hydroxy-3-methylbut-1-yn-1-yl)pyridin-3-yl)-1-methyl-1H-indazol-3-yl)morpholine-4-carboxamide]
inhibition at 0.2 µM [1]: 92% | inhibition at 2 µM [1]: 93% | CC50 at 5 days [2]: 31.8 µM

CCNS(=O)(=O)Nc1nn(C)c2c(-c3ccc(C#CC(C)(C)O)nc3[C@H](Cc3cc(F)cc(F)c3)NC(=O)Cn3nc(C(F)(F)F)c4c3C(F)(F)[C@@H]3C[C@H]43)cccc12 [Compound 53, 2-((3bS,4aR)-5,5-difluoro-3-(trifluoromethyl)-3b,4,4a,5-tetrahydro-1H-cyclopropa[3,4]cyclopenta[1,2-c]pyrazol-1-yl)-N—((S)-2-(3,5-difluorophenyl)-1-(3-(3-((N-ethylsulfamoyl)amino)-1-methyl-1H-indazol-7-yl)-6-(3-hydroxy-3-methylbut-1-yn-1-yl)pyridin-2-yl)ethyl)acetamide]
inhibition at 0.2 µM [1]: 92% | inhibition at 2 µM [1]: 92% | CC50 at 5 days [2]: 8.03 µM

Cn1nc(NS(N)(=O)=O)c2cccc(-c3ccc(C#CC(C)(C)O)nc3[C@H](Cc3cc(F)cc(F)c3)NC(=O)Cn3nc(C(F)F)c4c3C(F)(F)[C@@H]3C[C@H]43)c21 [Compound 54, 2-((3b-S,4aR)-3-(difluoromethyl)-5,5-difluoro-3b,4,4a,5-tetrahydro-1H-cyclopropa[3,4]cyclopenta[1,2-c]pyrazol-1-yl)-N—((S)-2-(3,5-difluorophenyl)-1-(6-(3-hydroxy-3-methylbut-1-yn-1-yl)-3-(1-methyl-3-(sulfamoylamino)-1H-indazol-7-yl)pyridin-2-yl)ethyl)acetamide]
inhibition at 0.2 µM [1]: 98% | inhibition at 2 µM [1]: 98% | CC50 at 5 days [2]: 8.08 µM
